{"source": "patent US4774320A", "about": "“Synthetic peptide with human interleukin 1 activity” (Sclavo S.p.A., priority 1986, dated 1988)", "key": {"CTLL-2 cells": {"test_system": "CTLL-2 cells", "assay": "Substances tested directly on IL-2-dependent CTLL cells (no splenocyte supernatant; upper part of Table 2)", "assay_type": "cell-based", "conditions": "dilution 1/10"}, "[1]": {"test_system": "T cells from the spleen of C3H/HeJ mice", "assay": "Induction of IL-2 production in ConA-activated spleen T cells; supernatants tested for growth of IL-2-dependent CTLL-2 cells", "assay_type": "cell-based", "conditions": "supernatants of splenocytes incubated 48 hours with ConA and substance, dilution 1/10", "experimental": "For the purpose of establishing whether the activity of costimulation of the murine thymocytes on the part of the synthetic peptide is due, as in the case of human IL-1, to the induction of the production of IL-2, the following test was carried out.\nT cells from the spleen of C3H/HeJ mice, separated on nylon wool as reported by Julius, M. H. et al., Eur. J. Immunol. 3, 645 (1973), are incubated in duplicate for 48 hours at 37° C. in 1 ml of RPMI 1640 medium (GIBCO), supplemented by N-2-hydroxyethylpiperazine N'-2-ethanesulphonic acid (HEPES), L-glutamine, gentamycin, 10% bovine foetal serum and 2-mercaptoethanol (2.5×10^-5 M), in the presence of graduated concentrations (840-420-210 μg/ml) of the synthetic peptide 163-171 and of purified human IL-1B as standard, with the addition of concanavalin A (ConA) as costimulant.\nAt the end of the period of incubation, the supernatant is separated from the culture and a determination is made of its capacity to promote the growth of CTLL-2 cells dependent upon IL-2 according to the method reported by Gillis S. M. et al. (J. Immunol. 120, 2027 (1978)).\nThe mitogenic activity of IL-2 on CTLL-2 cells is measured, either by determining the number of cells after 24 hours of culturing or by means of the assessment of the incorporation of tritiated thymidine in the cells. […]"}}, "data": [{"substance": "Human IL-1β: purified human IL-1B standard (Genzyme Boston Mass.)", "values": [{"measurement": "IL-2 (mU/ml)", "setting": "CTLL-2 cells", "result": 1, "unit": "mU/ml"}, {"measurement": "Stimulation index + SE of CTLL cells", "setting": "CTLL-2 cells", "result": "0.93 ± 0.02"}, {"measurement": "IL-2 (mU/ml)", "setting": "[1]", "result": 38, "unit": "mU/ml"}, {"measurement": "Stimulation index + SE of CTLL cells", "setting": "[1]", "result": "15.27 ± 0.88"}]}]}
